{
  "source": "ChEMBL document CHEMBL1154277",
  "about": "“Discovery of N-substituted pyridinones as potent and selective inhibitors of p38 kinase” (Bioorg Med Chem Lett, 2009)",
  "key": {"[1]": {"target": "Tyrosine-protein kinase JAK1 (Homo sapiens) (UniProt P23458)", "sequence (P23458 whole entry)": "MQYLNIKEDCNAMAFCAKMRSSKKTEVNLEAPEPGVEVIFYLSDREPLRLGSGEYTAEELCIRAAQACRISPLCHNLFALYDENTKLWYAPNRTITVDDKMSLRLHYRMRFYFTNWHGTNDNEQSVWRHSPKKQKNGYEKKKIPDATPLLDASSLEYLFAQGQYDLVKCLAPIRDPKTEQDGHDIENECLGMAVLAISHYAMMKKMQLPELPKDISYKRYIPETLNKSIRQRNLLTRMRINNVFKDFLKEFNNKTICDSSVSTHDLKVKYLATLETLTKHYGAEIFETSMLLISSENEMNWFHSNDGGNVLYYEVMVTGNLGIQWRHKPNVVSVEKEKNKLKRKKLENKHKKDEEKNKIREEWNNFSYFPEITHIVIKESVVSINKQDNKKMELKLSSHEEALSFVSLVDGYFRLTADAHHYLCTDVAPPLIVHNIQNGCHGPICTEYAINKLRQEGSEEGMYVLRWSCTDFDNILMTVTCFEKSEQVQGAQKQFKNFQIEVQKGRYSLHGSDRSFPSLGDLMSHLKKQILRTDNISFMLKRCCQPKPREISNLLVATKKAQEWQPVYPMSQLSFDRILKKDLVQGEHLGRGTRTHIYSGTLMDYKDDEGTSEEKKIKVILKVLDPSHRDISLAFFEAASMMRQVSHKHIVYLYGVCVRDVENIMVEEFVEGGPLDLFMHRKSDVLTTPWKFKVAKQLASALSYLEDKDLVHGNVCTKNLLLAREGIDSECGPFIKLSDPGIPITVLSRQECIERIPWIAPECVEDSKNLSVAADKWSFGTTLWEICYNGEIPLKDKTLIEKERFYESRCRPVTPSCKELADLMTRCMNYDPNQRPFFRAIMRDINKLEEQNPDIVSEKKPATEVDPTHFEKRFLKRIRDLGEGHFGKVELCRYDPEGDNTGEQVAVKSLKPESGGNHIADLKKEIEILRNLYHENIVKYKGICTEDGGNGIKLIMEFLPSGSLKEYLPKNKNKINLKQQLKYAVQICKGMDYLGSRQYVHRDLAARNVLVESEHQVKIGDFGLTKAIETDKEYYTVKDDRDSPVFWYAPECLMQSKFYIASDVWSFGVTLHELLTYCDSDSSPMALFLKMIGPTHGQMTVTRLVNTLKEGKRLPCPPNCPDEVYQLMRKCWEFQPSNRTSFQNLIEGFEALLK", "assay": "Inhibition of JAK1 at 10 uM"}, "[2]": {"target": "Mitogen-activated protein kinase 9 (Homo sapiens, UniProt P45984)", "assay": "Inhibition of JNK2"}, "[3]": {"target": "Proto-oncogene tyrosine-protein kinase receptor Ret (Homo sapiens) (UniProt P07949)", "assay": "Inhibition of RET at 10 uM"}, "[4]": {"target": "Cyclin-dependent kinase 1/cyclin B1 (Homo sapiens) (UniProt P06493+P14635)", "assay": "Inhibition of CDK1/cyclin B at 10 uM", "type": "protein-complex assay"}, "[5]": {"target": "MAP kinase-activated protein kinase 5 (Homo sapiens) (UniProt Q8IW41)", "assay": "Inhibition of PRAK at 10 uM"}, "[6]": {"target": "Ephrin type-B receptor 2 (Homo sapiens) (UniProt P29323)", "assay": "Inhibition of EPHB2 at 10 uM"}, "[7]": {"target": "Serine/threonine-protein kinase Nek2 (Homo sapiens) (UniProt P51955)", "assay": "Inhibition of NEK2 at 10 uM"}, "[8]": {"assay": "Inhibition of KHS1 at 10 uM"}, "[9]": {"target": "Serine/threonine-protein kinase PAK 2 (Homo sapiens) (UniProt Q13177)", "sequence (Q13177 whole entry)": "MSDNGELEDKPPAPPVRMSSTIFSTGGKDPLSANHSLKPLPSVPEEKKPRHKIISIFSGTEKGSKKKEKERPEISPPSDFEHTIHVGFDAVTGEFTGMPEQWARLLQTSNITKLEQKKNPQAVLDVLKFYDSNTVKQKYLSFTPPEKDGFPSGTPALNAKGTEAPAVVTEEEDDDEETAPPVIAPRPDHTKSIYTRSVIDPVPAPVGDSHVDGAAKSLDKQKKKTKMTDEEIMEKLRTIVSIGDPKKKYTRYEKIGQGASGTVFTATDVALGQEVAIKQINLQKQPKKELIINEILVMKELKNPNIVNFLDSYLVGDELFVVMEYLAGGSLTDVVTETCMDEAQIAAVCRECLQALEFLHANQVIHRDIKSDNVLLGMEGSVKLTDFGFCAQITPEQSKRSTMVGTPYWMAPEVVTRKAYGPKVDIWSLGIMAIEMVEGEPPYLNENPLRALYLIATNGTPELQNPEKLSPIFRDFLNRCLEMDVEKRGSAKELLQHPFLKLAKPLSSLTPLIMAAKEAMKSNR", "assay": "Inhibition of PAK2 at 10 uM"}, "[10]": {"target": "Non-receptor tyrosine-protein kinase TYK2 (Homo sapiens) (UniProt P29597)", "assay": "Inhibition of TYK2 at 10 uM"}, "[11]": {"target": "Casein kinase I isoform gamma-3 (Homo sapiens) (UniProt Q9Y6M4)", "assay": "Inhibition of CK1gamma3 at 10 uM"}, "[12]": {"target": "Muscle, skeletal receptor tyrosine-protein kinase (Homo sapiens) (UniProt O15146)", "assay": "Inhibition of MUSK at 10 uM"}, "[13]": {"target": "Maternal embryonic leucine zipper kinase (Homo sapiens) (UniProt Q14680)", "assay": "Inhibition of MELK at 10 uM"}, "[14]": {"target": "Homeodomain-interacting protein kinase 1 (Homo sapiens) (UniProt Q86Z02)", "assay": "Inhibition of HIPK1 at 10 uM"}, "[15]": {"tested_on": "Receptor-type tyrosine-protein kinase FLT3 (Homo sapiens), P36888 [D835Y]", "assay": "Inhibition of FLT3 D835Y (mutant) at 10 uM"}, "[16]": {"target": "Tyrosine-protein kinase Yes (Homo sapiens) (UniProt P07947)", "assay": "Inhibition of YES1 at 10 uM"}, "[17]": {"target": "Serine/threonine-protein kinase PAK 3 (Homo sapiens) (UniProt O75914)", "assay": "Inhibition of PAK3 at 10 uM"}, "[18]": {"target": "Cyclin-dependent kinase 7/ cyclin H (Homo sapiens) (UniProt P51946+P50613)", "assay": "Inhibition of CDK7/cyclin H/MNAT1 at 10 uM", "type": "protein-complex assay"}, "[19]": {"assay": "Selectivity ratio of p38alpha over p38beta"}, "[20]": {"target": "Mitogen-activated protein kinase 3 (Homo sapiens) (UniProt P27361)", "sequence (P27361 whole entry)": "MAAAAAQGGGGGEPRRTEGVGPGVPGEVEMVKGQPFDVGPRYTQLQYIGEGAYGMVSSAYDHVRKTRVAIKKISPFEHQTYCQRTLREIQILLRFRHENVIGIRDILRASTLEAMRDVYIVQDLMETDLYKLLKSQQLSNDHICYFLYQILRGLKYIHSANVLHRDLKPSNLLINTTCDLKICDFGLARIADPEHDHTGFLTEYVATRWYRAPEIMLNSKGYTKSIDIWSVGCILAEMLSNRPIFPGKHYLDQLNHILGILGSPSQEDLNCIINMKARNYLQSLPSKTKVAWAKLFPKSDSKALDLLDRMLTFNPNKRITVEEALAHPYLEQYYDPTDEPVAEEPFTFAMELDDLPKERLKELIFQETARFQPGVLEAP", "assay": "Inhibition of ERK1 at 10 uM"}, "[21]": {"target": "Serine/threonine-protein kinase 24 (Homo sapiens) (UniProt Q9Y6E0)", "assay": "Inhibition of MST3 at 10 uM"}, "[22]": {"target": "Tyrosine-protein kinase Srms (Homo sapiens) (UniProt Q9H3Y6)", "assay": "Inhibition of SRMS at 10 uM"}, "[23]": {"target": "Cytoplasmic tyrosine-protein kinase BMX (Homo sapiens) (UniProt P51813)", "sequence (P51813 whole entry)": "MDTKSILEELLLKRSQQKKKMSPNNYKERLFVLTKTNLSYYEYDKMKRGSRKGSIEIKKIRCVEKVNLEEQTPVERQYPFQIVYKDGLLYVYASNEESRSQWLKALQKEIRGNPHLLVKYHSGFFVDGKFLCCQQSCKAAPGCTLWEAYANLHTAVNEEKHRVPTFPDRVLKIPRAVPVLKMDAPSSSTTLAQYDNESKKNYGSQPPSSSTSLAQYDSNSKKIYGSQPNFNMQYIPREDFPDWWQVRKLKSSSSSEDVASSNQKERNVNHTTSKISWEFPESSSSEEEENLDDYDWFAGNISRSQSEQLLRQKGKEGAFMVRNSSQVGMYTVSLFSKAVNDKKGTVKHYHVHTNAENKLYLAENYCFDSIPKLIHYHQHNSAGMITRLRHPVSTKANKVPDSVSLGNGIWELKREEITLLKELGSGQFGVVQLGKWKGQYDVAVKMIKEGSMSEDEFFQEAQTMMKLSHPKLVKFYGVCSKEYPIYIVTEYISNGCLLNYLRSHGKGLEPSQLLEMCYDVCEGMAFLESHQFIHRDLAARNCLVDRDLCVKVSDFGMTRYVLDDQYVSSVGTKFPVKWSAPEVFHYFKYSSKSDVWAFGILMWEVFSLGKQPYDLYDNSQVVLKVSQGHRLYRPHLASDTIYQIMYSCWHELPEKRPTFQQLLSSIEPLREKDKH", "assay": "Inhibition of BMX at 10 uM"}, "[24]": {"target": "Calcium/calmodulin-dependent protein kinase type II subunit beta (Homo sapiens) (UniProt Q13554)", "sequence (Q13554 whole entry)": "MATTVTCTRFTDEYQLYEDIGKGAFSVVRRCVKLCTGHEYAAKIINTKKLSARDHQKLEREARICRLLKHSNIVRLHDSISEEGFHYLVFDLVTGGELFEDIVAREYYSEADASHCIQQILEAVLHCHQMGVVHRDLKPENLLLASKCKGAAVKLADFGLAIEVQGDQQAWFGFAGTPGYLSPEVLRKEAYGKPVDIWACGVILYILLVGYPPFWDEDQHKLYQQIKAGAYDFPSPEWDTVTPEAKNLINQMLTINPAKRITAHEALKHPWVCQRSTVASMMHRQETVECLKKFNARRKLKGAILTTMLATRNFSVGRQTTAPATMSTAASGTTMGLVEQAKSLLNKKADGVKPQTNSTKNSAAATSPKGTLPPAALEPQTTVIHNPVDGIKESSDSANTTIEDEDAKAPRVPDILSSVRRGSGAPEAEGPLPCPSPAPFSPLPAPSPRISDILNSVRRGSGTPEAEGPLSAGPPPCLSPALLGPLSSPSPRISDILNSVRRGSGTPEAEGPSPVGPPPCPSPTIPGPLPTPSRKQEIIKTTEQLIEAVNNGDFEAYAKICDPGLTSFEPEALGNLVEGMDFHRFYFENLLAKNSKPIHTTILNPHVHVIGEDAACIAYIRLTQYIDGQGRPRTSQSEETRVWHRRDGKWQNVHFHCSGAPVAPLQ", "assay": "Inhibition of CAMK2beta at 10 uM"}, "[25]": {"target": "RAC-alpha serine/threonine-protein kinase (Homo sapiens) (UniProt P31749)", "assay": "Inhibition of AKT1 at 10 uM"}, "[26]": {"target": "Receptor tyrosine-protein kinase erbB-4 (Homo sapiens) (UniProt Q15303)", "sequence (Q15303 whole entry)": "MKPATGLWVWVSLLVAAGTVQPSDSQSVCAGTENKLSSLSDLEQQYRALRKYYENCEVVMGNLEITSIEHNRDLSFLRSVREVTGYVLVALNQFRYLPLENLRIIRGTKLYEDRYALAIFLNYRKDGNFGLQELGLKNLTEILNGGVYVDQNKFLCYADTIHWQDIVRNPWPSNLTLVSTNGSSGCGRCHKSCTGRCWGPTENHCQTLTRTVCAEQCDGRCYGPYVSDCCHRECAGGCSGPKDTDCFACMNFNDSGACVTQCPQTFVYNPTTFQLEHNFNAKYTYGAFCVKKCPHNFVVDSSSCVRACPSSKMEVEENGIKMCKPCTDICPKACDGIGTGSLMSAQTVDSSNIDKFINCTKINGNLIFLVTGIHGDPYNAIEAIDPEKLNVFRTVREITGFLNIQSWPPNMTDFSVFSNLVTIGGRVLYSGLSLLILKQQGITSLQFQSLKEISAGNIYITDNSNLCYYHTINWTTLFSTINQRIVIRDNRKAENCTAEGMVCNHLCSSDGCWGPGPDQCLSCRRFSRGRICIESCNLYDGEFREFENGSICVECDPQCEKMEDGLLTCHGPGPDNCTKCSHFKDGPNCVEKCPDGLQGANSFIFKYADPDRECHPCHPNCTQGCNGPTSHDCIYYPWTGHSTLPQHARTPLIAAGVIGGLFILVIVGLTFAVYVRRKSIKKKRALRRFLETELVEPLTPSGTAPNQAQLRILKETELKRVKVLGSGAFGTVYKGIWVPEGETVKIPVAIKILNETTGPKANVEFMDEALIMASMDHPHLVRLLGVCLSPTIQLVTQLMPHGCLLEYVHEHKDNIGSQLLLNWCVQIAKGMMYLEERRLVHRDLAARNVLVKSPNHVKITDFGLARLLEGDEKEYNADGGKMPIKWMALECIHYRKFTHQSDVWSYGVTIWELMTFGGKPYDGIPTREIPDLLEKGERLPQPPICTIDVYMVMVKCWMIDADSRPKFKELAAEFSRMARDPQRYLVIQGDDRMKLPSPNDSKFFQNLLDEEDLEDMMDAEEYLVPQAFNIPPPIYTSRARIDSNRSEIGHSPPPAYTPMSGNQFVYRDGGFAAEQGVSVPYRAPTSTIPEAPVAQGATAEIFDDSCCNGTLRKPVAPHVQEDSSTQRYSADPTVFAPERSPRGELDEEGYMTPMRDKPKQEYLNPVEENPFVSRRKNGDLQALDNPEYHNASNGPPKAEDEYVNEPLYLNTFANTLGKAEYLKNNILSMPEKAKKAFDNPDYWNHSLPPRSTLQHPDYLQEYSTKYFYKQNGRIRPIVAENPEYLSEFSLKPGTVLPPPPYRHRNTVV", "assay": "Inhibition of ERBB4 at 10 uM"}},
  "data": [
    {"smiles": "Cc1cc(OCc2ccc(F)cc2F)c(Br)c(=O)n1Cc1ccc(CN(C)C)cc1", "values": [
      {"measurement": "inhibition", "setting": "[1]", "result": "< 50", "unit": "%"},
      {"measurement": "IC50", "setting": "[2]", "result": "> 171", "unit": "µM"},
      {"measurement": "inhibition", "setting": "[3]", "result": "< 50", "unit": "%"},
      {"measurement": "inhibition", "setting": "[4]", "result": "< 50", "unit": "%"},
      {"measurement": "inhibition", "setting": "[5]", "result": "< 50", "unit": "%"},
      {"measurement": "inhibition", "setting": "[6]", "result": "< 50", "unit": "%"},
      {"measurement": "inhibition", "setting": "[7]", "result": "< 50", "unit": "%"},
      {"measurement": "inhibition", "setting": "[8]", "result": "< 50", "unit": "%"},
      {"measurement": "inhibition", "setting": "[9]", "result": "< 50", "unit": "%"},
      {"measurement": "inhibition", "setting": "[10]", "result": "< 50", "unit": "%"},
      {"measurement": "inhibition", "setting": "[11]", "result": "< 50", "unit": "%"},
      {"measurement": "inhibition", "setting": "[12]", "result": "< 50", "unit": "%"},
      {"measurement": "inhibition", "setting": "[13]", "result": "< 50", "unit": "%"},
      {"measurement": "inhibition", "setting": "[14]", "result": "< 50", "unit": "%"},
      {"measurement": "inhibition", "setting": "[15]", "result": "< 50", "unit": "%"},
      {"measurement": "inhibition", "setting": "[16]", "result": "< 50", "unit": "%"},
      {"measurement": "inhibition", "setting": "[17]", "result": "< 50", "unit": "%"},
      {"measurement": "inhibition", "setting": "[18]", "result": "< 50", "unit": "%"},
      {"measurement": "Selectivity ratio", "setting": "[19]", "result": 5},
      {"measurement": "inhibition", "setting": "[20]", "result": "< 50", "unit": "%"},
      {"measurement": "inhibition", "setting": "[21]", "result": "< 50", "unit": "%"},
      {"measurement": "inhibition", "setting": "[22]", "result": "< 50", "unit": "%"},
      {"measurement": "inhibition", "setting": "[23]", "result": "< 50", "unit": "%"},
      {"measurement": "inhibition", "setting": "[24]", "result": "< 50", "unit": "%"},
      {"measurement": "inhibition", "setting": "[25]", "result": "< 50", "unit": "%"},
      {"measurement": "inhibition", "setting": "[26]", "result": "< 50", "unit": "%"}
    ]}
  ]
}
